IC50 and Ki data for five compounds are collected here from ChEMBL document CHEMBL3774347, “Docking and Linking of Fragments To Discover Jumonji Histone Demethylase Inhibitors” (J Med Chem, 2016).

Bounds are passed on as bounds.

Assay [1] concerns the target Hypoxia-inducible factor 1-alpha inhibitor (Homo sapiens, UniProt Q9NWT6). Briefly: Inhibition of N-terminal His6-tagged full-length FIH (unknown origin) expressed in Escherichia coli Rosetta 2(DE3)pLysS using SMDESGLPQLTSYDCEVNAPIQGSRNLLQGEELLRALDQVN peptide/100 uM alpha-ketoglutarate as substrate/cofactor incubated for 45 mins by MALDI assay.
Assay [2] addresses T1, Lysine-specific demethylase 4C (Homo sapiens, UniProt Q9H3R0).
T1 sequence (Q9H3R0 whole entry): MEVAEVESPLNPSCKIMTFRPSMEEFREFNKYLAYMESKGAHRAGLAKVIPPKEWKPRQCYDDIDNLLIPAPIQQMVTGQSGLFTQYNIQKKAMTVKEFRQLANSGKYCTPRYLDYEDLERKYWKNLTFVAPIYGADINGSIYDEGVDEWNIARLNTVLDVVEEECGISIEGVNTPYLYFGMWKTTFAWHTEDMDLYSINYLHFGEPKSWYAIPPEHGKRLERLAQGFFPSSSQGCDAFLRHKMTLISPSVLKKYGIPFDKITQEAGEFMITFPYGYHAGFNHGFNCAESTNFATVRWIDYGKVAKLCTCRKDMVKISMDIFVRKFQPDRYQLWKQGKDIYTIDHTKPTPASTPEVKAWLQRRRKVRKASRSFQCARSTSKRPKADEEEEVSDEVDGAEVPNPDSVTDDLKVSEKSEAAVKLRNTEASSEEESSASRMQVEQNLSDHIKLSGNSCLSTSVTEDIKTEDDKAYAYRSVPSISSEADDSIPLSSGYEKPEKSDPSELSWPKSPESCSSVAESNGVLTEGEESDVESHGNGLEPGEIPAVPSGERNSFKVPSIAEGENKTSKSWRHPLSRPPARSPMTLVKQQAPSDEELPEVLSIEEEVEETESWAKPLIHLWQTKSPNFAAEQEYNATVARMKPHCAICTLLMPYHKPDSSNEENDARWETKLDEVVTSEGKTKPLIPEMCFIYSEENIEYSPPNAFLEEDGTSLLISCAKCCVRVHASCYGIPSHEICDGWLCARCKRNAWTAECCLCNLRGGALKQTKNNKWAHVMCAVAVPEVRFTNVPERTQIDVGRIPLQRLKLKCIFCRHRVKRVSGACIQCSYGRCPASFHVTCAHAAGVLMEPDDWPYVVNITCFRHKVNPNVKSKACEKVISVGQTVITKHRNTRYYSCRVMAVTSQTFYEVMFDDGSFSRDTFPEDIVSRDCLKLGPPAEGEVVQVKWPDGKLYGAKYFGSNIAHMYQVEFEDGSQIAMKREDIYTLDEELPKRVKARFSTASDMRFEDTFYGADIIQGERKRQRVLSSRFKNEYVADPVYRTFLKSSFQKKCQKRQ
Briefly: Inhibition of N-terminal His6-tagged KDM4C (1 to 352 residues) (unknown origin) expressed in Escherichia coli Rosetta 2(DE3)pLysS using biotinylated histone H3 (1 to 21 residues) lysine 9 trimethylated peptide/2 uM alpha-ketoglutarate as substrate/cofactor measured after 45 mins by TR-FRET assay. The conditions noted are these: read-out: IC50. A general note: Time-resolved FRET reads energy transfer from a long-lived donor to a nearby acceptor.

The target of assay [3] is T2, Lysine-specific demethylase 4D (Homo sapiens, UniProt Q6B0I6).
T2 sequence (Q6B0I6 whole entry): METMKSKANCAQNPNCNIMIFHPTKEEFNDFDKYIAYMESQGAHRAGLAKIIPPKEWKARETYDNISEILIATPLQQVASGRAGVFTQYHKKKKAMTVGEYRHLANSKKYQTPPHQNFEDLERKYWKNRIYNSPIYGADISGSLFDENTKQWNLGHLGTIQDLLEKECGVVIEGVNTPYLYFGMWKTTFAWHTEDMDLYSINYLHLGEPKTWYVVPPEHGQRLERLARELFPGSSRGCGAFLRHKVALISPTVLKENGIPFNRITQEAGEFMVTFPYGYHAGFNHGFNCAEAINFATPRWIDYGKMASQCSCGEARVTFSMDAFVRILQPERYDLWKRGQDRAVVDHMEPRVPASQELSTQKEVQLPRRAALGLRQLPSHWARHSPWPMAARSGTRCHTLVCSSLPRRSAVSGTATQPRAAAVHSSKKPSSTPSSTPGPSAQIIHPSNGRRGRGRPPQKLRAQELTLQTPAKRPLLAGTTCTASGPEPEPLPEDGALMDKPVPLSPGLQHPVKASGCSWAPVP
Briefly: Inhibition of KDM4D (unknown origin) expressed in Escherichia coli using H3 (1 to 21 residues) K9Me3-GGK-Biotin KDM4 Cognate Ligand/10 uM alpha-ketoglutarate as substrate/cofactor preincubated for 5 mins followed by substrate addition measured after 20 mins by alphascreen assay. (Alpha assays give light when donor and acceptor beads are brought close together.)

For assay [4], the target named is T1, Lysine-specific demethylase 4C. Briefly: Competitive inhibition of N-terminal His6-tagged KDM4C (1 to 352 residues) (unknown origin) expressed in Escherichia coli Rosetta 2(DE3)pLysS using 250 uM ARK(Me3)STGGK peptide/50 uM alpha-ketoglutarate as substrate/cofactor by FDH coupling-based Lineweaver-Burk plot analysis.
The target is the same in assay [5]. Briefly: Competitive inhibition of N-terminal His6-tagged KDM4C (1 to 352 residues) (unknown origin) expressed in Escherichia coli Rosetta 2(DE3)pLysS using 50 uM ARK(Me3)STGGK peptide/5 uM alpha-ketoglutarate as substrate/cofactor by FDH coupling-based Lineweaver-Burk plot analysis.
Assay [6] has the same target. Briefly: Competitive inhibition of N-terminal His6-tagged KDM4C (1 to 352 residues) (unknown origin) expressed in Escherichia coli Rosetta 2(DE3)pLysS using 50 uM ARK(Me3)STGGK peptide/50 uM alpha-ketoglutarate as substrate/cofactor by FDH coupling-based Lineweaver-Burk plot analysis.
Assay [7] has the same target.

Sequence of Hypoxia-inducible factor 1-alpha inhibitor (Q9NWT6 whole entry): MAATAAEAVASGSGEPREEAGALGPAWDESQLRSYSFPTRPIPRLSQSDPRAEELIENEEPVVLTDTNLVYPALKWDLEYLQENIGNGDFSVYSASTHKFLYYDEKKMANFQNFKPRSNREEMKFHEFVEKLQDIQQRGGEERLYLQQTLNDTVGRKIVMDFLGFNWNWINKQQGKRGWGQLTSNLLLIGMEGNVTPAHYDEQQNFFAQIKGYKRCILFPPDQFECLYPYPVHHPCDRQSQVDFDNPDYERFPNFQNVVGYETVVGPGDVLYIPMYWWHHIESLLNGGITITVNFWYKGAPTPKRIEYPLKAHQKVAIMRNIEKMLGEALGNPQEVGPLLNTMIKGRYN

The term IC50 denotes the concentration at which inhibition is half-maximal. Turning to `Cc1cc(C(=O)Nc2ccc(O)c(-c3cc(C(=O)O)ccn3)c2)no1`, the results for the half-inhibitory concentration (IC50) in assay [1], in assay [2] and in assay [3] were 473 µM, 65 nM and 9.2 µM, respectively.
In the case of `CC(=O)Nc1ccc(O)c(-c2cc(C(=O)O)ccn2)c1`, the IC50 is > 500 µM in assay [1], 1200 nM in assay [2] and 14 µM in assay [3].
A word on the Ki: it is the equilibrium dissociation constant of an inhibitor or competing ligand from its target. Higher therefore signals weaker binding. With `COCC(=O)Nc1ccc(O)c(-c2cc(C(=O)O)ccn2)c1`, the IC50 is 14.9 µM in assay [4]; 3300 nM in assay [5]; 14.2 µM in assay [6]; > 500 µM in assay [1]; 140 nM in assay [2]; 4.2 µM in assay [3]. In addition, the Ki in assay [7] was 683 nM.
For the compound `COc1cccc(CC(=O)Nc2ccc(O)c(-c3cc(C(=O)O)ccn3)c2)c1`, the values for the half-maximal inhibitory concentration (IC50) in assay [1], in assay [2] and in assay [3] were > 500 µM, 140 nM and 11 µM, respectively.
Regarding `O=C(O)c1ccnc(-c2cc(NC(=O)c3ccc(O)cc3)ccc2O)c1`, the half-inhibitory concentration (IC50) in assay [4] was 5.5 µM; in assay [5], 1100 nM; in assay [6], 4.8 µM; in assay [1] it was > 500 µM; in assay [2], 64 nM; in assay [3], 13 µM. The Ki in assay [7] was determined as 43.2 nM.
